# Read-outs that look alike come from different tables or passages of the source.
# Key:
# [1] = tested on: Type 2 Herpes; assay: CPE inhibition in KB cells, Type 2 Herpes; type: cell-based; details: VR >0.5 significant, <0.5 slight activity
# Experimental: (§1) They were tested for activity using the virus-induced cytopathogenic effect (CPE) method of Sidwell, et al., (Applied Microbiology 22:797-801, 1971). Briefly, the CPE procedure includes the dissolution of the antiviral agent in a cell culture medium consisting of vitamins, amino acids, serum, buffer, penicillin, streptomycin and indicator dye in water. The virus suspended in the cell culture medium was added to an established monolayer of KB cells, and an equal volume of the antiviral agent was then added within 15 minutes. The infected treated cells were graded following microscopic examination. Controls for each experiment include cell controls (cells and cell culture medium only), virus controls (cells and virus and cell culture medium) and toxicity controls (cells and chemical and cell culture medium).
# (§2) The virus rating (VR) system of Sidwell et al, described in Applied Microbiology, supra, was used to evaluate the degree of significance of CPE inhibition.
# [2] = tested on: Type 56 Rhino; assay: CPE inhibition in KB cells, Type 56 Rhino; type: cell-based; details: VR >0.5 significant, <0.5 slight activity
# Experimental: as §1, §2
# [3] = tested on: mice; details: for MST / Survivors Per Total / Average Lung Consolidation / HA Titer Per ml: Drug + MEM; for Average Lung Consolidation: Day 25, scale of 0-4; for HA Titer Per ml: lung homogenates Day 25
# [4] = tested on: Measles; assay: Measles virus plaque inhibition (agar overlay); type: cell-based; details: Measles morbillivirus, 96 h, day 4; for inhibition at 20 µg/mL: 20 μg/ml; for inhibition at 100 µg/mL: 100 μg/ml; for inhibition at 500 µg/mL: 500 μg/ml
# Description: In experiments with measles virus, the above method was altered in that the infected cells were covered with an agar-serum-bicarbonate overlay containing the antiviral compounds so that viral plaques could be discerned. These plaques were strained with neutral red dye on day 4 and counted, with any reduction in plaque number resulting from exposure to the antiviral compound determined. The methodology for the experiment is as described by Wear et al (Exptl. and Molecular Pathol. 9:405-417, 1968).
# [5] = tested on: Vaccinia; type: cell-based; details: KB cells, VR >0.5 significant, <0.5 slight activity
# [6] = tested on: Type 3 Parainfluenza; assay: CPE inhibition in KB cells, Type 3 Parainfluenza; type: cell-based; details: VR >0.5 significant, <0.5 slight activity
# Experimental: as §1, §2
# [7] = in vitro; details: human, kb cells
# [8] = tested on: Type 13 Rhino; assay: CPE inhibition in KB cells, Type 13 Rhino; type: cell-based; details: VR >0.5 significant, <0.5 slight activity
# Experimental: as §1, §2
# [9] = tested on: Type 8 Rhino; assay: CPE inhibition in KB cells, Type 8 Rhino; type: cell-based; details: VR >0.5 significant, <0.5 slight activity
# Experimental: as §1, §2
# [10] = tested on: Type 1A Rhino; assay: CPE inhibition in KB cells, Type 1A Rhino; type: cell-based; details: VR >0.5 significant, <0.5 slight activity
# Experimental: as §1, §2
# [11] = tested on: Type 1 Herpes; assay: CPE inhibition in KB cells, Type 1 Herpes; type: cell-based; details: VR >0.5 significant, <0.5 slight activity
# Experimental: as §1, §2
# [12] = tested on: influenza A2 virus; type: in vivo, Female Swiss Mice; details: for Average Lung Consolidation: Day 25, scale of 0-4; for effectiveness against influenza virus: summary in words
# [13] = biological target: T1, Nucleoside Phosphorylase (Bos taurus, UniProt P55859); assay: Nucleoside Phosphorylase assay (conversion of 1,2,4-triazole-3-carboxamide to its 1-β-D-ribofuranosyl nucleoside); type: biochemical, calf (spleen); details: pH 7.4, 25°, 5 minutes
# T1 construct: purchased Sigma Chemical Co., St. Louis, Mo; host or cells: calf spleen
# T1 sequence (P55859 1-289): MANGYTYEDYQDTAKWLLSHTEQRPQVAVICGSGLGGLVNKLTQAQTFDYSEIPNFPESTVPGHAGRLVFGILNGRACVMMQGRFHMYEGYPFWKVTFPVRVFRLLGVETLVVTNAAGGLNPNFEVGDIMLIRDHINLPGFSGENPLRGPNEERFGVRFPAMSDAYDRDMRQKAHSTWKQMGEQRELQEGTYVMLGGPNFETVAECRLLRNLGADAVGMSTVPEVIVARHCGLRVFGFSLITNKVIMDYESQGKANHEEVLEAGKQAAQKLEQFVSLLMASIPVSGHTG
# Experimental: 1,2,4-Triazole-3-carboxamide may be converted to 1-β-D-ribofuranosyl- 1,2,4-triazole-3-carboxamide by reaction with the enzyme Nucleoside Phosphorylase at a pH within the range of about 5 to about 9, preferably 7 to 8, at an enzyme concentration of from about 0.015 to about 0.75 mg/ml, preferably about 0.15 mg/ml, and a temperature within the range of about 0° to about 50°C, with the preferred temperature being approximately 25° to about 35°C. Satisfactory results have been obtained when the triazole base is present in a concentration greater than 5×10^^-5 M and ribose-1-phosphate is present at a concentration greater than 2×10^^-5 M. Generally about 0.1 to about 2 hours, preferably about 0.5 to about 1 hour, are required for the reaction. The source of the enzyme may be animal, tissue, or bacteria. The principal bacterial sources are E. coli and […], while a variety of animal sources exist, including beef spleen, rat liver, calf liver, calf thymus, beef liver, monkey brain, horse liver, calf spleen, human erythrocytes, fish skin, and fish muscle. […]
# The samples were incubated at 25° for 5 minutes and then frozen in dry ice - isopropanol to stop the reaction. […] Areas of the chromatograms coinciding with 1,2,4-triazole-3-carboxamide were removed and counted to determine the percent of conversion of 1,2,4 -triazole-3-carboxamide to 1-β-D-ribofuranosyl-1,2,4-triazole-3-carboxamide.
# [14] = Compound 1, 250 mg/kg/day ip, schedule 1
# [15] = Compound 1, 500 mg/kg/day ip, schedule 1
# [16] = Compound 1, 1000 mg/kg/day ip, schedule 1
# [17] = Compound 1, 250 mg/kg/day ip, Drug + Virus, schedule 1
# [18] = Compound 1, 500 mg/kg/day ip, Drug + Virus, schedule 1
# [19] = Compound 1, 1000 mg/kg/day ip, Drug + Virus, schedule 1
# [20] = Compound 2, 250 mg/kg/day ip, schedule 3
# [21] = Compound 2, 500 mg/kg/day ip, schedule 3
# [22] = Compound 2, 1000 mg/kg/day ip, schedule 2
# [23] = Compound 2, 75 mg/kg/day ip, Drug + Virus, schedule 1
# [24] = Compound 2, 250 mg/kg/day ip, Drug + Virus, schedule 3
# [25] = Compound 2, 500 mg/kg/day ip, Drug + Virus, schedule 3
# [26] = Compound 2, 1000 mg/kg/day ip, Drug + Virus, schedule 2
smiles,measurement,setting,value
"NC(=O)c1nc[nH]n1 [Compound 1, 1,2,4-Triazole-3-carboxamide]",Virus Rating,[1],0.4
same,Virus Rating,[2],0.3
same,MST,[3]; [14],> 21.0 days
same,Survivors Per Total,[3]; [14],5/5
same,MST,[3]; [15],> 21.0 days
same,Survivors Per Total,[3]; [15],5/5
same,MST,[3]; [16],> 21 days
same,Survivors Per Total,[3]; [16],5/5
same,toxicity to mice,"[3]; concentrations as high as 1000 mg/kg/day, intraperitoneally twice daily for 9 days",nontoxic
same,inhibition at 20 µg/mL,[4],34%
same,inhibition at 100 µg/mL,[4],97%
same,inhibition at 500 µg/mL,[4],99%
same,Virus Rating,[5],0.8
same,Virus Rating,[6],0.5-0.7
same,MCC,[7],32 to 1000 µg/mL
same,Virus Rating,[8],0.3
same,Virus Rating,[9],0.2
same,Virus Rating,[10],0.4-0.5
same,Virus Rating,[11],0.6-0.9
same,MST,[12]; [17],17.5 days
same,Survivors Per Total,"[12]; Compound 1, 250 mg/kg/day ip, Drug + Virus, schedule 1 (P<0.05)",8/10
same,Average Lung Consolidation,[12]; [17],1.4
same,MST,[12]; [18],12.0 days
same,Survivors Per Total,"[12]; Compound 1, 500 mg/kg/day ip, Drug + Virus, schedule 1 (P<0.1)",7/10
same,Average Lung Consolidation,[12]; [18],2.5
same,MST,[12]; [19],15 days
same,Survivors Per Total,"[12]; Compound 1, 1000 mg/kg/day ip, Drug + Virus, schedule 1 (P<0.05)",8/10
same,Average Lung Consolidation,[12]; [19],2.0
same,HA Titer Per ml,"[12]; Compound 1, 1000 mg/kg/day ip, Drug + Virus, schedule 1, lung homogenates Day 25",1.3
same,effectiveness against influenza virus,[12],particularly effective against influenza virus
same,% Conversion,[13]; - enzyme,0.8%
same,% Conversion,"[13]; - ribose-1-P, + enzyme, 80μg",1.1%
"NC(=S)c1nc[nH]n1 [Compound 2, 1,2,4-Triazole-3-thiocarboxamide]",Virus Rating,[1],0.3
same,Virus Rating,[2],0.4
same,MST,[3]; [20],> 21.0 days
same,Survivors Per Total,[3]; [20],5/5
same,Average Lung Consolidation,[3]; [20],0.5
same,HA Titer Per ml,[3]; [20],0
same,MST,[3]; [21],9.0 days
same,Survivors Per Total,[3]; [21],4/5
same,Average Lung Consolidation,[3]; [21],2.0
same,HA Titer Per ml,[3]; [21],0
same,MST,[3]; [22],4.2 days
same,Survivors Per Total,[3]; [22],0/5
same,toxicity to mice,"[3]; concentrations as low as 250 mg/kg/day, intraperitoneally, same treatment regimen (twice daily for 9 days)",moderately toxic as evidenced by weight loss and death
same,inhibition at 20 µg/mL,[4],5%
same,inhibition at 100 µg/mL,[4],98%
same,inhibition at 500 µg/mL,[4],100%
same,Virus Rating,[5],0.5
same,Virus Rating,[6],0.2-0.4
same,MCC,[7],≥ 1 µg/mL
same,Virus Rating,[8],0.4
same,Virus Rating,[9],0.3
same,Virus Rating,[10],0.2-0.4
same,Virus Rating,[11],0.4-0.8
same,MST,[12]; [23],> 21.0 days
same,Survivors Per Total,"[12]; Compound 2, 75 mg/kg/day ip, Drug + Virus, schedule 1 (P<0.001)",10/10
same,Average Lung Consolidation,[12]; [23],1.0
same,MST,[12]; [24],9.2 days
same,Survivors Per Total,"[12]; Compound 2, 250 mg/kg/day ip, Drug + Virus, schedule 3 (P<0.2)",6/10
same,Average Lung Consolidation,[12]; [24],3.6
same,MST,[12]; [25],7.6 days
same,Survivors Per Total,"[12]; Compound 2, 500 mg/kg/day ip, Drug + Virus, schedule 3 (P>0.3)",5/10
same,Average Lung Consolidation,[12]; [25],2.2
same,MST,[12]; [26],8.3 days
same,Survivors Per Total,"[12]; Compound 2, 1000 mg/kg/day ip, Drug + Virus, schedule 2 (P>0.3)",3/10
same,Average Lung Consolidation,[12]; [26],3.7
same,effectiveness against influenza virus,[12],particularly effective against influenza virus
"NC(=O)c1ncn([C@@H]2O[C@H](CO)[C@@H](O)[C@H]2O)n1 [Compound 3, 1-β-D-Ribofuranosyl-1,2,4-triazole-3-carboxamide]",Virus Rating,[1],1.3
same,Virus Rating,[2],0.9
same,inhibition at 20 µg/mL,[4],30%
same,inhibition at 100 µg/mL,[4],94%
same,inhibition at 500 µg/mL,[4],100%
same,Virus Rating,[5],0.9-1.0
same,Virus Rating,[6],0.6-1.0
same,Virus Rating,[8],0.5
same,Virus Rating,[9],0.8
same,Virus Rating,[10],0.6
same,Virus Rating,[11],1.0-1.5
